What was measured:
[1] = system: LOLRI; assay: Post-emergence herbicidal action against LOLRI; type: in vivo, Lolium rigidum; settings: Lolium rigidum, 504 h, dosage 20 g/ha
Experimental: Seeds of monocotyledonous and dicotyledonous weed and crop plants are laid out in sandy loam soil in wood-fiber pots, covered with soil and cultivated in a greenhouse under good growth conditions. 2 to 3 weeks after sowing, the test plants are treated at the one-leaf stage. The compounds of the invention, formulated in the form of wettable powders (WP) or as emulsion concentrates (EC), are then sprayed onto the green parts of the plants in the form of an aqueous suspension or emulsion at a water application rate equivalent to 600 to 800 l/ha, with addition of 0.2% wetting agent. After the test plants have been left to stand in the greenhouse under optimal growth conditions for about 3 weeks, the action of the preparations is assessed visually in comparison to untreated controls (herbicidal action in percent (%): 100% activity=the plants have died, 0% activity=like control plants). […] The tables below illustrate, in an illustrative manner, the post-emergence herbicidal action of the compounds of the invention, the herbicidal activity being stated in percent.

[2] = system: ABUTH; assay: Pre-emergence herbicidal action against ABUTH; type: in vivo, Abutilon theophrasti; settings: Abutilon theophrasti, 504 h; for pest or weed control at 80 g/ha: scored visually after 3 weeks vs untreated controls (100% = plants have died, 0% = like control plants); for pest or weed control at 20 g/ha: dosage 20 g/ha, scored visually after 3 weeks vs untreated controls, 100% = plants have died, 0% = like control plants, read-out: Pre-emergence action against ABUTH (herbicidal activity in percent)
How it was run: (§1)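 Visual rating at 3 weeks vs untreated pots; 0–100% scale, 100% = plants died. Treatment: aqueous WP/EC spray onto covering soil, 600–800 l/ha, 0.2% wetter, seeds in sandy loam.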

[3] = system: AMARE; assay: Post-emergence herbicidal action against AMARE; type: in vivo, Amaranthus retroflexus; settings: Amaranthus retroflexus, 504 h, 20 g/ha, visual assessment about 3 weeks after treatment, 100% = plants have died, 0% = like control plants
How it was run: (§2)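 Weeds in sandy loam soil received a post-emergence spray at the one-leaf stage. Compounds were applied as WP or EC in water, 600 to 800 l/ha, with 0.2% wetting agent. Activity in % was judged visually after roughly 3 weeks against untreated plants.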

[4] = system: SETVI; assay: Pre-emergence herbicidal action against SETVI; type: in vivo, Setaria viridis; settings: Setaria viridis, 504 h; for pest or weed control at 80 g/ha: dosage 80 g/ha
How it was run: as §1

[5] = system: VIOTR; assay: Post-emergence herbicidal action against VIOTR; type: in vivo, Viola tricolor; settings: Viola tricolor, 504 h
How it was run: as §2

[6] = system: POLCO; assay: Post-emergence herbicidal action against POLCO; type: in vivo, Polygonum convolvulus; settings: Fallopia convolvulus, 504 h, dosage 20 g/ha
How it was run: as §2

[7] = system: PHBPU; assay: Post-emergence herbicidal action against PHBPU; type: in vivo, Pharbitis purpurea; settings: Ipomoea purpurea, 504 h, dosage 20 g/ha
How it was run: as §2

[8] = system: LOLRI; assay: Pre-emergence herbicidal action against LOLRI; type: in vivo, Lolium rigidum; settings: Lolium rigidum, 504 h, 80 g/ha
How it was run: as §1

[9] = system: ALOMY; assay: Pre-emergence herbicidal action against ALOMY; type: in vivo, Alopecurus myosuroides; settings: Alopecurus myosuroides, 504 h, pre-emergence; for pest or weed control at 80 g/ha: scored visually after 3 weeks vs untreated controls (100% = plants have died, 0% = like control plants); for pest or weed control at 20 g/ha: scored visually after 3 weeks, 100% = plants have died, 0% = like control plants
How it was run: as §1

[10] = system: PHBPU; assay: Pre-emergence herbicidal action against PHBPU; type: in vivo, Pharbitis purpurea; settings: Ipomoea purpurea, 504 h, dosage 80 g/ha
How it was run: as §1

[11] = system: VIOTR; assay: Pre-emergence herbicidal action against VIOTR; type: in vivo, Viola tricolor; settings: Viola tricolor, 504 h; for pest or weed control at 80 g/ha: dosage 80 g/ha
How it was run: as §1

[12] = system: ECHCG; assay: Post-emergence herbicidal action against ECHCG; type: in vivo, Echinochloa crus-galli; settings: Echinochloa crus-galli, 504 h, dosage 20 g/ha
How it was run: as §2

[13] = system: SETVI; assay: Post-emergence herbicidal action against SETVI; type: in vivo, Setaria viridis; settings: Setaria viridis, 504 h; for pest or weed control at 20 g/ha: dosage 20 g/ha
How it was run: as §2

[14] = system: AVEFA; assay: Post-emergence herbicidal action against AVEFA; type: in vivo, Avena fatua; settings: Avena fatua, 504 h, 20 g/ha, visual assessment about 3 weeks after treatment, 100% = plants have died, 0% = like control plants
How it was run: as §2

[15] = system: AVEFA; assay: Pre-emergence herbicidal action against AVEFA; type: in vivo, Avena fatua; settings: Avena fatua, 504 h; 80 g/ha, pre-emergence
How it was run: as §1

[16] = system: ABUTH; assay: Post-emergence herbicidal action against ABUTH; type: in vivo, Abutilon theophrasti; settings: Abutilon theophrasti, 504 h, visual assessment about 3 weeks after treatment vs untreated controls; for pest or weed control at 20 g/ha: dosage 20 g/ha
How it was run: as §2

[17] = system: VERPE; assay: Pre-emergence herbicidal action against VERPE; type: in vivo, Veronica persica; settings: Veronica persica, 504 h
How it was run: as §1

[18] = system: AMARE; assay: Pre-emergence herbicidal action against AMARE; type: in vivo, Amaranthus retroflexus; settings: Amaranthus retroflexus, 504 h, scored visually after 3 weeks vs untreated controls, 100% = plants have died, 0% = like control plants
How it was run: as §1

[19] = system: ECHCG; assay: Pre-emergence herbicidal action against ECHCG; type: in vivo, Echinochloa crus-galli; settings: Echinochloa crus-galli, 504 h
How it was run: as §1

[20] = system: MATIN; assay: Post-emergence herbicidal action against MATIN; type: in vivo, Matricaria inodora; settings: Tripleurospermum inodorum, 504 h, dosage 20 g/ha
How it was run: as §2

[21] = system: MATIN; assay: Pre-emergence herbicidal action against MATIN; type: in vivo, Matricaria inodora; settings: Tripleurospermum inodorum, 504 h; for pest or weed control at 20 g/ha: dosage 20 g/ha; for pest or weed control at 80 g/ha: dosage 80 g/ha
How it was run: as §1

[22] = system: ALOMY; assay: Post-emergence herbicidal action against ALOMY; type: in vivo, Alopecurus myosuroides; settings: Alopecurus myosuroides, 504 h, visual assessment about 3 weeks after treatment vs untreated controls; for pest or weed control at 5 g/ha: dosage 5 g/ha; for pest or weed control at 20 g/ha: dosage 20 g/ha
How it was run: as §2

[23] = system: VERPE; assay: Post-emergence herbicidal action against VERPE; type: in vivo, Veronica persica; settings: Veronica persica, 504 h, 20 g/ha
How it was run: as §2

[24] = system: DIGSA; assay: Pre-emergence herbicidal action against DIGSA; type: in vivo, Digitaria sanguinalis; settings: Digitaria sanguinalis, 504 h; for pest or weed control at 20 g/ha: dosage 20 g/ha; for pest or weed control at 80 g/ha: dosage 80 g/ha
How it was run: as §1

[25] = system: DIGSA; assay: Post-emergence herbicidal action against DIGSA; type: in vivo, Digitaria sanguinalis; settings: Digitaria sanguinalis, 504 h
How it was run: as §2

Row | Compound | pest or weed control at 20 g/ha [1] | pest or weed control at 80 g/ha [2] | pest or weed control at 20 g/ha [2] | pest or weed control at 20 g/ha [3] | pest or weed control at 80 g/ha [4] | pest or weed control at 5 g/ha [5] | pest or weed control at 20 g/ha [5] | pest or weed control at 20 g/ha [6] | pest or weed control at 80 g/ha [8] | pest or weed control at 80 g/ha [9] | pest or weed control at 20 g/ha [9] | pest or weed control at 80 g/ha [11] | pest or weed control at 20 g/ha [12] | pest or weed control at 20 g/ha [13] | pest or weed control at 20 g/ha [14] | pest or weed control at 80 g/ha [15] | pest or weed control at 20 g/ha [16] | pest or weed control at 20 g/ha [18] | pest or weed control at 80 g/ha [18] | pest or weed control at 80 g/ha [19] | also measured
1 | CCNC(=O)c1c(Br)ccc(C(=O)Nc2nnnn2C)c1Cl [Example 1-178, 4-bromo-2-chloro-N^3-ethyl-N^1-(1-methyl-1H-tetrazol-5-yl)isophthalamide] | 80% | 100% | 90% | 100% | 100% | 80% | 80% | 80% | 80% | 100% | 80% | 100% | 90% | 90% | 80% | 100% | 80% | 100% | 100% | 100% | pest or weed control at 20 g/ha [7]: 80%; pest or weed control at 80 g/ha [10]: 80%; pest or weed control at 5 g/ha ([16]; dosage 5 g/ha): 80%; pest or weed control at 20 g/ha ([17]; dosage 20 g/ha): 80%; pest or weed control at 80 g/ha ([17]; dosage 80 g/ha): 80%; pest or weed control at 20 g/ha ([19]; 20 g/ha): 80%; pest or weed control at 20 g/ha [20]: 90%; pest or weed control at 20 g/ha [21]: 90%; pest or weed control at 80 g/ha [21]: 100%; pest or weed control at 5 g/ha [22]: 90%; pest or weed control at 20 g/ha [22]: 100%; pest or weed control at 20 g/ha [23]: 80%; pest or weed control at 20 g/ha [24]: 100%; pest or weed control at 80 g/ha [24]: 100%
2 | Cn1nnnc1NC(=O)c1ccc(Br)c(C(=O)NC2CC2)c1Cl [Example 1-179] | 80% | 100% | 80% | 100% | 100% | 80% | 90% | 80% | 90% | 100% | 80% | 100% | 90% | 90% | 90% | 100% | 80% | 100% | 100% | 100% | pest or weed control at 20 g/ha ([4]; dosage 20 g/ha): 80%; pest or weed control at 5 g/ha ([25]; 5 g/ha): 90%; pest or weed control at 20 g/ha ([25]; 20 g/ha): 90%; pest or weed control at 20 g/ha ([11]; dosage 20 g/ha): 100%; pest or weed control at 5 g/ha ([13]; dosage 5 g/ha): 90%; pest or weed control at 20 g/ha [20]: 80%; pest or weed control at 20 g/ha [21]: 90%; pest or weed control at 80 g/ha [21]: 100%; pest or weed control at 5 g/ha [22]: 90%; pest or weed control at 20 g/ha [22]: 90%; pest or weed control at 20 g/ha [23]: 80%; pest or weed control at 20 g/ha [24]: 100%; pest or weed control at 80 g/ha [24]: 100%
